Drawing on patent US8536354B2, “Steroidal ligands and their use in gene switch modulation” (Intrexon Corporation, priority 2008, dated 2013), this text covers EC50 and Emax for 17 compounds.

Changes are numbered by the printed parent chain. pEC50: −log10 of the molar value. Like-named read-outs stand apart in the source and are kept apart here.

In experiment [1] the target is T1, wild-type CfEcR (GAL4-CfEcR-DEF with VP16-RXR-USP chimera) (Choristoneura fumiferana, UniProt O77255).
T1 sequence (O77255 219-541): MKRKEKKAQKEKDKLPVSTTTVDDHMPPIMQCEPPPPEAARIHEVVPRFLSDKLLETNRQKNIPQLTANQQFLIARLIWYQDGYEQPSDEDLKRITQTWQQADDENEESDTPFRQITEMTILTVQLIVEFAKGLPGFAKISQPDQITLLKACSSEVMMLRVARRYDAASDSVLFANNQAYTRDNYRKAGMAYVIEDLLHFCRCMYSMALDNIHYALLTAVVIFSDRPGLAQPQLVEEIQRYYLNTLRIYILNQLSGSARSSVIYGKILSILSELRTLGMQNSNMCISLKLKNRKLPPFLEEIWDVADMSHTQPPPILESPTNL
T1 sequence (P28702 1-533 partner): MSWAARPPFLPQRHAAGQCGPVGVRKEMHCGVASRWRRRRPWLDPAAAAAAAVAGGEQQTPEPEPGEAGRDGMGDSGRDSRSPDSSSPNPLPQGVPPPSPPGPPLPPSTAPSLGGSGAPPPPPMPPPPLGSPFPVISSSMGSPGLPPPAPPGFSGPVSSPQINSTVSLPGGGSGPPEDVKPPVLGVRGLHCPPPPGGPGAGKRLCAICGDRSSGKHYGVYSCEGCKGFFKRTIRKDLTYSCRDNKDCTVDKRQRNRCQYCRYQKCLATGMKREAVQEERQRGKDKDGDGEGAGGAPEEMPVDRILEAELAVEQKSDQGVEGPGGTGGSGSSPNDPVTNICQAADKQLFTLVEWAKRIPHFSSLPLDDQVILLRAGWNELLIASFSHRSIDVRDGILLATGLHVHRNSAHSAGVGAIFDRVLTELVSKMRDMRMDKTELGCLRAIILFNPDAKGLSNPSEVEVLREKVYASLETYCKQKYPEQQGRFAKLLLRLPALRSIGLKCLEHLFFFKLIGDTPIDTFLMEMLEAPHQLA
As to the kind of experiment: Two-hybrid gene switch assay, luciferase reporter, wild-type CfEcR, mouse NIH3T3 cells. Background: In a reporter assay the amount or activity of a reporter protein is the signal.

The target of experiment [2] is wild-type Aedes aegypti EcR (AaEcR; GAL4-EcR DEF with VP16-RXR-USP chimera) (Aedes aegypti, UniProt P49880). As to the kind of experiment: Two-hybrid gene switch assay, luciferase reporter, wild-type AaEcR, mouse NIH3T3 cells. The experiment is classed as cell-based.
Experiment [3] deals with T2, wild-type Choristoneura fumiferana EcR (CfEcR-DEF) (Choristoneura fumiferana, UniProt O77255).
T2 sequence (O77255 219-541): T1 sequence (O77255 219-541) with A230E
T2 sequence (P28702 299-449 partner): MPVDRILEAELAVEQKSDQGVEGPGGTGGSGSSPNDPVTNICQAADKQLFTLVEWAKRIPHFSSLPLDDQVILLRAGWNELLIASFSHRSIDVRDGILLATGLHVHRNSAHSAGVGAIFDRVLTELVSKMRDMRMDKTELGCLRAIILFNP
Nature of the experiment: Two-hybrid gene switch assay, wild-type CfEcR-DEF (GAL4-EcR / VP16-RXR-USP chimera, luciferase) in NIH3T3 cells. Particulars: for Emax: NIH3T3, 48 h, read-out: rel max FI (diacylhydrazine), CF.

Experiment [4] concerns the target wild-type Drosophila melanogaster EcR (DmEcR; GAL4-EcR DEF with VP16-RXR-USP chimera) (Drosophila melanogaster, UniProt P34021). As to the kind of experiment: Two-hybrid gene switch assay, luciferase reporter, wild-type DmEcR, mouse NIH3T3 cells. The experiment is classed as cell-based. Particulars: EC50, FIG. 8.

Chain of wild-type Aedes aegypti EcR (AaEcR; GAL4-EcR DEF with VP16-RXR-USP chimera) (P49880 with tags, fused parts or gaps limits assumed, change not shown): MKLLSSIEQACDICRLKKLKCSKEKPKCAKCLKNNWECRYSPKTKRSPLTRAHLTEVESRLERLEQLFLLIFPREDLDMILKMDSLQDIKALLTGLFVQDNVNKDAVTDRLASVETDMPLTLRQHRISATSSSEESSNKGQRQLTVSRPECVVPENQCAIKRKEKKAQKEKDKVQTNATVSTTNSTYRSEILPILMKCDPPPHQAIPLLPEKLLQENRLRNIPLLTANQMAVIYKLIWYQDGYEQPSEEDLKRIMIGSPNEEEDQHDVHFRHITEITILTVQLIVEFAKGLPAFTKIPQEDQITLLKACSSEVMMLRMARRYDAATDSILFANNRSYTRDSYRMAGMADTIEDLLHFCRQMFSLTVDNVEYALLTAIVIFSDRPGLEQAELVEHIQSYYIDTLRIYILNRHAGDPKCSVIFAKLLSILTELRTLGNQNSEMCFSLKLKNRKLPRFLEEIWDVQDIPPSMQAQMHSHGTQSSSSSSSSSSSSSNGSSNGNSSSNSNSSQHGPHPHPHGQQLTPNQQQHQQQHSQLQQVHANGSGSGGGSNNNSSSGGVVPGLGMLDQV
Chain of wild-type Drosophila melanogaster EcR (DmEcR; GAL4-EcR DEF with VP16-RXR-USP chimera) (P34021 with tags, fused parts or gaps limits assumed): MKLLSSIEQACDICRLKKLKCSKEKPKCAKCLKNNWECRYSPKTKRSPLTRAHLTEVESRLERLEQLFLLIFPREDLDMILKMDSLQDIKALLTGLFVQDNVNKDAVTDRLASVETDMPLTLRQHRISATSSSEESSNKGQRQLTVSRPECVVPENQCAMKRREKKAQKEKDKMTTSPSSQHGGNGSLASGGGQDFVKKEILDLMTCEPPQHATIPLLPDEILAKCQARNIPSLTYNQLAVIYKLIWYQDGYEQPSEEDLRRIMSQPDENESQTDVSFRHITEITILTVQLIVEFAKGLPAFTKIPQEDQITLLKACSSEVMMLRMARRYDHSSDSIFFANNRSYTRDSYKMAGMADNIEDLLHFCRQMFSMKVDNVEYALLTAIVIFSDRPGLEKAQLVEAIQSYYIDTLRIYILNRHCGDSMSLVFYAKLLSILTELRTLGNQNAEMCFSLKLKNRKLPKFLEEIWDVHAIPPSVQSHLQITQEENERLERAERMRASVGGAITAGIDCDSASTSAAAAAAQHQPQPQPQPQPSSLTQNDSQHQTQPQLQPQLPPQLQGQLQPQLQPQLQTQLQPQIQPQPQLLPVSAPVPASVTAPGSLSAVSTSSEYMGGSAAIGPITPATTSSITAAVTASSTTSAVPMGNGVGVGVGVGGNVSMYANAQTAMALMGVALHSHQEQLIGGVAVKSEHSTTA

On to `CC(C(O)CCC(C)(C)O)C1CCC2(O)C3=CC(=O)C4CC(O)C(O)CC4(C)C3CCC12C` (stereo not drawn) [Compound 24], for which the pEC50 (commonly the EC50 on a negative log10 scale, so that one unit is a factor of ten) in experiment [1] was below 4.48.
With `CC(C)(O)CC[C@@H](O)[C@](C)(O)[C@H]1CC[C@@]2(O)C3=CC(=O)[C@@H]4C[C@@H](O)[C@@H](O)C[C@]4(C)[C@H]3CC[C@]12C` [Compound 25], the pEC50 in experiment [2] (FIG. 8, read-out: EC50) is 6.03.
The compound `CO[C@H]1CC2(C)C(C[C@H]1OC)C(=O)C=C1C2CCC2(C)C([C@@](C)(O)[C@@H](CCC(C)(C)O)OC)CC[C@@]12OC` (stereo partly drawn) [Compound 15] gave a pEC50 in experiment [1] below 4.48.
Compound `CC(C)(O)CC[C@@H](O)[C@](C)(O)[C@H]1CC[C@@]2(O)C3=CC(=O)[C@]4(O)C[C@@H](O)[C@@H](O)C[C@]4(C)[C@H]3CC[C@]12C` [polypodine B, reference compound] gave a pEC50 in experiment [3] (wt-CfEcR gene switch, NIH3T3, Example One) of around 4.92.
In turn, `CO[C@H](CCC(C)C)[C@](C)(O)C1CC[C@@]2(O)C3=CC(=O)C4C[C@@H](O)[C@@H](O)CC4(C)C3=CCC12C` (stereo partly drawn) [Compound 22] gave a pEC50 in experiment [1] of 4.86.
On to `CO[C@H](CCC(C)(C)OC)[C@](C)(O)[C@H]1CC[C@@]2(O)C3=CC(=O)[C@@H]4C[C@@H](O)[C@@H](O)C[C@]4(C)[C@H]3CC[C@]12C` [Compound 14], for which the pEC50 in experiment [1] was below 4.48; in experiment [4] it was 5.80.
For `CCCCO[C@H](CCC(C)(C)O)[C@](C)(O)C1CC[C@@]2(O)C3=CC(=O)C4C[C@@H](O)[C@@H](O)CC4(C)C3CCC12C` (stereo partly drawn) [Compound 8], the negative-log EC50 (pEC50) in experiment [2] (FIG. 8, read-out: EC50) was 5.57; in experiment [1], below 4.48; in experiment [4], 4.84.
The compound `CC(C)CCC(O)C(C)(O)C1CCC2(O)C3=CC(=O)C4(O)CC(O)C(O)CC4(C)C3C(O)CC12C` (stereo not drawn) [Compound 28] gave a negative-log EC50 (pEC50) in experiment [4] of 6.95.
On to `COC(C)(C)CCC(O)C(C)(O)C1CCC2(O)C3=CC(=O)C4CC(O)C(O)CC4(C)C3CCC12C` (stereo not drawn) [20E-25-methyl ether], for which, in experiment [3], the negative logarithm of the EC50 (pEC50) was below 4.48 and the Emax was determined as 0.13%.
Take `CO[C@@]12CC[C@H]([C@@](C)(O)[C@H](O)CCC(C)C)[C@@]1(C)CC[C@H]1C2=CC(=O)[C@@H]2C[C@@H](O)[C@@H](O)C[C@@]21C` [Compound 17]: the negative logarithm of the EC50 (pEC50) in experiment [1] was around 4.70.
For `CCO[C@H](CCC(C)(C)O)[C@](C)(O)C1CC[C@@]2(O)C3=CC(=O)C4C[C@@H](O)[C@@H](O)CC4(C)C3CCC12C` (stereo partly drawn) [20E-22-ethyl ether], the Emax in experiment [3] was found to be 77%.
The compound `CO[C@H](CCC(C)C)[C@](C)(O)[C@H]1CC[C@@]2(OC)C3=CC(=O)[C@@H]4C[C@@H](O)[C@@H](O)C[C@]4(C)[C@H]3CC[C@]12C` [Compound 21] gave a pEC50 in experiment [1] below 4.48.
For the compound `C=CCO[C@H](CCC(C)(C)O)[C@](C)(O)C1CC[C@@]2(O)C3=CC(=O)C4C[C@@H](O)[C@@H](O)CC4(C)C3CCC12C` (stereo partly drawn) [Compound 7], the pEC50 in experiment [1] was below 4.48; in experiment [4] it was around 5.30.
With `CCCO[C@H](CCC(C)(C)O)[C@](C)(O)C1CC[C@@]2(O)C3=CC(=O)C4C[C@@H](O)[C@@H](O)CC4(C)C3CCC12C` (stereo partly drawn) [20E-22-n-propyl ether], in experiment [3], the negative-log EC50 (pEC50) was below 4.48 and the Emax was determined as 0.5%.
As to `COC(C)(C)CC[C@@H](O)[C@](C)(O)[C@H]1CC[C@@]2(O)C3=CC(=O)[C@@H]4C[C@@H](O)[C@@H](O)C[C@]4(C)[C@H]3CC[C@]12C` [Compound 10], the pEC50 in experiment [2] (EC50, FIG. 8) is around 6.52; in experiment [4], 5.26.
As to `CC(C)(O)CC[C@@H](OCc1ccccc1)[C@](C)(O)C1CC[C@@]2(O)C3=CC(=O)C4C[C@@H](O)[C@@H](O)CC4(C)C3CCC12C` (stereo partly drawn) [Compound 9], the pEC50 in experiment [1] is below 4.48.
On the same count and under the same terms, as for `CO[C@H]1C[C@@]2(C)[C@@H](C[C@H]1O)C(=O)C=C1[C@@H]2CC[C@]2(C)[C@@H]([C@@](C)(O)[C@@H](CCC(C)C)OC)CC[C@@]12O` [Compound 19], the figure is 4.56.
